We go through 29 compounds from patent US20130245006A1, “NOVEL INDOLIZINE DERIVATIVES, AND PREPARATION AND THERAPEUTIC USE THEREOF” (SANOFI, priority 2010, published 2013).

Converted amounts (≈) assume the structure as drawn.

This data set in a line: Solubility by HPLC relative to a reference sample. The data set is classed as physicochemical. As to conditions: aqueous buffer, phosphate buffer, at the pH given. As to the method:
The evaluation of the solubility of the compounds of the invention is carried out at pH 4 (using a phosphate buffer, […]) by HPLC using an H2O/CH3CN/CH3SO3H gradient, relative to a reference sample (a dilute solution of the product to be evaluated which serves as an internal control). The solubility S results are expressed in mg/ml. Generally, the compounds of the present invention have a solubility S≧4 mg/ml at pH≧4. Among them, mention may be made of the solubilities of the following compounds in the table below: […]
`CCc1cc2cc(C(=O)N(CC(=O)OC)C(C)C)ccn2c1C(=O)c1ccc(CCCC2(NC(C)C)CCCC2)cc1` [compound 79, [(2-Ethyl-3-{4-[3-(1-isopropylamino-cyclopentyl)propyl]benzoyl}indolizine-7-carbonyl)isopropylamino]acetic acid methyl ester]: the solubility was found to be 8020 µg/mL (≈ 14 mM).

Compound `CCCCc1cc2cc(C(=O)N(CC)CC(=O)O)ccn2c1C(=O)c1ccc(CCCN(CCCC)CCCC)cc1` [Compound No. 6, ({2-Butyl-3-[4-(3-dibutylaminopropyl)benzoyl]indolizine-7-carbonyl}ethylamino)acetic acid] returned a solubility of 4900 µg/mL (≈ 8.51 mM).

`CCc1cc2cc(C(=O)N(CC)Cc3nnn(C)n3)ccn2c1C(=O)c1ccc(CCCNC(C)(C)C)cc1` [Compound No. 17, 3-[4-(3-tert-Butylaminopropyl)benzoyl]-2-ethylindolizine-7-carboxylic acid ethyl(2-methyl-2H-tetrazol-5-ylmethyl)amide] displayed a solubility of 8230 µg/mL (≈ 15.5 mM). The figure for `CCCCc1cc2cc(C(=O)N(CC)[C@@H](C)C(=O)OC)ccn2c1C(=O)c1ccc(CCCN(CCCC)CCCC)cc1` (stereo in doubt) [compound 69, (S)-2-({2-Butyl-3-[4-(3-dibutylaminopropyl)benzoyl]indolizine-7-carbonyl}ethyl-amino)propionic acid methyl ester] is 5720 µg/mL (≈ 9.47 mM). `CCCCc1cc2cc(C(=O)N(CC)Cc3nnn[nH]3)ccn2c1C(=O)c1ccc(CCCN(CCCC)CCCC)cc1` [Compound No. 11, 2-Butyl-3-[4-(3-dibutylaminopropyl)benzoyl]indolizine-7-carboxylic acid ethyl(1H-tetrazole-5-ylmethyl)amide] had a solubility of 240 µg/mL (≈ 0.4 mM). The figure for `CCCCc1cc2cc(C(=O)N(CC)CC(=O)OCC)ccn2c1C(=O)c1ccc(CCCN(CCCC)CCCC)cc1` [compound 26, ({2-Butyl-3-[4-(3-dibutylamino-propyl)benzoyl]indolizine-7-carbonyl}ethylamino)acetic acid ethyl ester] is 1140 µg/mL (≈ 1.89 mM).

Take `CCc1cc2cc(C(=O)N(CC(=O)OC)C(C)C)ccn2c1C(=O)c1ccc(CCCNC2CCCC2)cc1` [Compound No. 8, ({3-[4-(3-Cyclopentylaminopropyl)benzoyl]-2-ethylindolizine-7-carbonyl}isopropylamino)acetic acid methyl ester]: the solubility was found to be 4900 µg/mL (≈ 9.22 mM).

Regarding `CCc1cc2cc(C(=O)N(CC(=O)OC)C(C)C)ccn2c1C(=O)c1ccc(CCCC2(NC)CCCC2)cc1` [Compound No. 16, [(2-Ethyl-3-(4-[3-(1-methylaminocyclopentyl)propyl]benzoyl}indolizine-7-carbonyl)isopropylamino]acetic acid methyl ester], the solubility came out at 630 µg/mL (≈ 1.15 mM). As for `CCCCc1cc2cc(C(=O)N(CC)Cc3nc(C)no3)ccn2c1C(=O)c1ccc(C2CCNCC2)cc1` [compound 80, 2-Butyl-3-(4-piperidin-4-ylbenzoyl)indolizine-7-carboxylic acid ethyl(3-methyl-[1,2,4]oxadizol-5-ylmethyl)amide], the solubility was determined as 4200 µg/mL (≈ 7.96 mM). In the case of `CCCCc1cc2cc(C(=O)N3CCC[C@H]3C(=O)OC)ccn2c1C(=O)c1ccc(CCCN(CCCC)CCCC)cc1` [Compound No. 2, (S)-1-{2-Butyl-3-[4-(3-dibutylamino-propyl)benzoyl]indolizine-7-carbonyl}-pyrrolidine-2-carboxylic acid methyl ester], the solubility came to 6300 µg/mL (≈ 10.5 mM). In the case of `CCCCc1cc2cc(C(=O)N(CC)CCOC(C)C)ccn2c1C(=O)c1ccc(CCCN(CCCC)CCCC)cc1` [compound 23, 2-Butyl-3-[4-(3-dibutylaminopropyl)benzoyl]indolizine-7-carboxylic acid ethyl(2-isopropoxyethyl)amide], the solubility was found to be 6170 µg/mL (≈ 10.2 mM). This solubility and that of the compound before are within 1.5-fold of each other. As to `CCCCc1cc2cc(C(=O)N(CC(=O)OC(C)C)C(C)C)ccn2c1C(=O)c1ccc(CCCN(CCCC)CCCC)cc1` [compound 59, ({2-Butyl-3-[4-(3-dibutylaminopropyl)-benzoyl]indolizine-7-carbonyl}-isopropylamino)acetic acid isopropyl ester], the solubility worked out at 5700 µg/mL (≈ 9.02 mM). `CCCCc1cc2cc(C(=O)N(CC)Cc3nnn(C)n3)ccn2c1C(=O)c1ccc(CCCN(CCCC)CCCC)cc1` [Compound No. 9, 2-Butyl-3-[4-(3-dibutylaminopropyl)benzoyl]indolizine-7-carboxylic acid ethyl(2-methyl-2H-tetrazol-5-ylmethyl)amide] yielded a solubility of 7220 µg/mL (≈ 11.8 mM). The figure for `CCCCc1cc2cc(C(=O)N(CC(=O)OC)C(C)C)ccn2c1C(=O)c1ccc(CCCN(CCCC)CCCC)cc1` [compound 28, ({2-Butyl-3-[4-(3-dibutylamino-propyl)benzoyl]indolizine-7-carbonyl}isopropyl-amino)acetic acid methyl ester] is 2420 µg/mL (≈ 4.01 mM); for `CCCCc1cc2cc(C(=O)N(CC)CCC(=O)O)ccn2c1C(=O)c1ccc(CCCN(CCCC)CCCC)cc1` [Compound No. 7, 3-({2-Butyl-3-[4-(3-dibutylaminopropyl)benzoyl]indolizine-7-carbonyl}ethylamino)propionic acid] it is 7200 µg/mL (≈ 12.2 mM); for `CCc1cc2cc(C(=O)N(CC(=O)OC)C(C)C)ccn2c1C(=O)c1ccc(CCCN(CC)C(C)C)cc1` [compound 55, [(2-Ethyl-3-{4-[3-(ethylisopropylamino)propyl]benzoyl}indolizine-7-carbonyl)isopropylamino]acetic acid methyl ester] it is 8820 µg/mL (≈ 16.5 mM).

Consider `CCCCc1cc2cc(C(=O)N(CC(=O)O)C(C)C)ccn2c1C(=O)c1ccc(CCCN(CC)CC)cc1` [compound 75, ({2-Butyl-3-[4-(3-diethylamino-propyl)benzoyl]indolizine-7-carbonyl}isopropylamino)acetic acid], for which the solubility is 8400 µg/mL (≈ 15.7 mM). This solubility and that of the compound before are within 1.5-fold of each other.

`CCc1cc2cc(C(=O)N(CC)Cc3nnn(C)n3)ccn2c1C(=O)c1ccc(CCC(C)(C)NC(C)(C)C)cc1` [Compound No. 18, 3-[4-(3-tert-Butylamino-3-methylbutyl)benzoyl]-2-ethylindolizine-7-carboxylic acid ethyl(2-methyl-2H-tetrazol-5-ylmethyl)amide] showed a solubility of 7880 µg/mL (≈ 14.1 mM). The compound `CCCCc1cc2cc(C(=O)N(CC)Cc3nc(C)no3)ccn2c1C(=O)c1ccc(CCCN(CCCC)CCCC)cc1` [Compound No. 10, 2-Butyl-3-[4-(3-dibutylaminopropyl)benzoyl]indolizine-7-carboxylic acid ethyl(3-methyl-[1,2,4]oxadiazol-5-ylmethyl)amide] gave a solubility of 4980 µg/mL (≈ 8.11 mM).

For `CCCCc1cc2cc(C(=O)N(CC(=O)OC)C(C)C)ccn2c1C(=O)c1ccc(CCCN(CC)CCCC)cc1` [compound 62, [(2-Butyl-3-{4-[3-(butylethylamino)propyl]benzoyl}indolizine-7-carbonyl)isopropylamino]acetic acid methyl ester], the solubility was determined as 5300 µg/mL (≈ 9.2 mM). Compound `CCCN(CCC)CCCc1ccc(C(=O)c2c(CC)cc3cc(C(=O)N(CC(=O)OC)C(C)C)ccn23)cc1` [compound 61, ({3-[4-(3-Dipropylamino-propyl)benzoyl]-2-ethylindolizine-7-carbonyl}isopropylamino)acetic acid methyl ester] had a solubility of 8930 µg/mL (≈ 16.3 mM). This solubility is about 1.7-fold higher than that of the compound before. For the compound `CCc1cc2cc(C(=O)N3CCC[C@@]3(C)C(=O)OC)ccn2c1C(=O)c1ccc(CCCNC(C)(C)C)cc1` [compound 50, (S)-1-{3-[4-(3-tert-Butylaminopropyl)benzoyl]-2-ethylindolizine-7-carbonyl}-2-methylpyrrolidine-2-carboxylic acid methyl ester], the solubility came to 8980 µg/mL (≈ 16.9 mM). `CCc1cc2cc(C(=O)N(CC(=O)OC)C(C)C)ccn2c1C(=O)c1ccc(CCCNC2CCCCC2)cc1` [compound 35, ({3-[4-(3-Cyclohexylaminopropyl)benzoyl]-2-ethylindolizine-7-carbonyl}isopropylamino)acetic acid methyl ester]: the solubility stood at 1570 µg/mL (≈ 2.88 mM). The figure for `CCCCc1cc2cc(C(=O)N(CC)CC(=O)OC)ccn2c1C(=O)c1ccc(CCCN(CCCC)CCCC)cc1` [Compound No. 5, ({2-Butyl-3-[4-(3-dibutylaminopropyl)benzoyl]indolizine-7-carbonyl}ethylamino)acetic acid methyl ester] is 5900 µg/mL (≈ 10 mM). Next, `CCc1cc2cc(C(=O)N(CC(=O)OC)C(C)C)ccn2c1C(=O)c1ccc(CCC(C)(C)NC2CCCC2)cc1` [Compound No. 19, ({3-[4-(3-Cyclopentylamino-3-methylbutyl)benzoyl]-2-ethylindolizine-7-carbonyl}isopropylamino)acetic acid methyl ester]: 7200 µg/mL (≈ 12.9 mM); `CCc1cc2cc(C(=O)N(CC(=O)O)C(C)C)ccn2c1C(=O)c1ccc(CCCNC(C)(C)C)cc1` [compound 76, ({3-[4-(3-tert-Butylamino-propyl)benzoyl]-2-ethylindolizine-7-carbonyl}isopropylamino)acetic acid]: 6200 µg/mL (≈ 12.3 mM); `CCc1cc2cc(C(=O)N(CC(=O)OC)C(C)C)ccn2c1C(=O)c1ccc(CCCNC(C)(C)C)cc1` [compound 31, ({3-[4-(3-tert-Butylaminopropyl)benzoyl]-2-ethylindolizine-7-carbonyl}isopropylamino)acetic acid methyl ester]: 2800 µg/mL (≈ 5.39 mM). As to `CCCCN(CCCC)CCCc1ccc(C(=O)c2c(CC)cc3cc(C(=O)N(CC)CC(=O)OC(C)C)ccn23)cc1` [compound 58, ({3-[4-(3-Dibutylamino-propyl)benzoyl]-2-ethylindolizine-7-carbonyl}ethyl-amino)acetic acid isopropyl ester], the solubility worked out at 6300 µg/mL (≈ 10.7 mM). Against the preceding compound, the solubility is about 2.2-fold higher. As for `CCCCN(CCCC)CCCc1ccc(C(=O)c2ccc3cc(C(=O)N(CC(=O)OC)C(C)C)ccn23)cc1` [compound 56, ({3-[4-(3-Dibutylamino-propyl)benzoyl]indolizine-7-carbonyl}isopropyl-amino)acetic acid methyl ester], the solubility came to 8300 µg/mL (≈ 15.2 mM).
